From patent publication US20030055103A1, “Utilization of achyrocline satureoides ("Marcela") extracts and liposomal preparations of natural and semi-synthetic flavonoids for the prevention and treatment of the consequences of stroke and neurodegenerative diseases” (priority 2001, published 2003)
Entries after “also recorded” stand apart in the source; their conditions may differ. Like-named read-outs stand apart in the source and are kept apart here. Peptide text beside a SMILES is read from it.

Tests used:
PC12 cells = experiment: PC12 cell survival after H2O2 oxidative insult (MTT reduction); assay type: cell-based; conditions: 200 μM H2O2 30 min, result in words
Method: PC12 cells (Greene and Tischler 1976, Shafer and Atchison 1991) were grown in RPMI supplemented with 10% heat-inactivated horse serum (HSI), 5% fetal bovine serum (FBS), penicillin and streptomycin on a collagen matrix. Typically, cells were sow (1:4 in a total volume of 10 ml complete medium) in 100×20 mm cell culture dishes and grown at 37° C. in at atmosphere of 5% CO2 for a week. Media was changed twice a week. Cultures were not used in more than 25 passages.
Cells were plated at a low density (100 cells/μl) in 200 μl of complete medium on 96-well cell culture plates on a poli-D-lysine matrix to do all the experiments except the comet assay. To do the latter, 100×20mm-cell culture dishes were adequate. All the experiments were started 24 hrs after the sow.
Cells were exposed to H2O2 200 μM during half an hour (medium was changed to stop the treatment) and all the evaluations were fulfilled 2 hrs later.
This assay measures the reduction of 3-(4,5-dimethyl-thiazol-2-yl)-2,5-diphenil tetrazolium bromide (MTT) (yellowish) to formazan (blue) by mitochondrial dehydrogenases of the living cells. The fresh complete medium added after the treatment was supplemented with MTT (0.5 mg/ml ). Following an incubation period of 2 hrs, it was removed and half-its volume of dimethylsulfoxide (DMSO) was added to achieve solubilization. Absorption values were read immediately at 570-640 nm (Denizot and Lang 1986). […]

[1] = tested on: spontaneous lipoperoxidation of rat's brain membranes; experiment: Spontaneous lipoperoxidation of rat brain membranes (malondialdehyde production); assay type: biochemical; conditions: for antioxidant potency / capacity: anti-lipoperoxidation assay (test not given)
[2] = tested on: rats injected with 6-OHDA in the SN; experiment: 6-OHDA lesion of the Substantia Nigra (experimental parkinsonism), striatal dopamine; assay type: in vivo, rat; conditions: given intraperitoneally before 6-OHDA, assessed eight days after, result in words
male Sprague-Dawley rats = experiment: Permanent focal MCA occlusion, TTC morphometry and histology; assay type: in vivo, rat; conditions: result in words
[3] = Quercetin concentration in rat blood after intraperitoneal administration; assay type: in vivo
Text: FIG. 17. A graph of Quercetin concentration in rat blood at different periods after intraperitoneal administration.

[4] = Acute toxicity (species not given); conditions: intraperitoneal or oral, doses up to 300 mg/kg
[5] = inhibition of spontaneous lipoperoxidation, rat brain membranes, read-out: IC50

Compound	protection / cell survival after H2O2 insult (PC12 cells)	IC50 [1, 5] [µM]	neuroprotection: dopamine level in ipsilateral striatum [2]	also measured
Cn1cnc(N)c2ncnc1-2 [3-MT, 3-methyladenine]	block H2O2-induced cell death	–	–	–
COc1cc2c(cc1O)C[C@H]1c3c(cc(O)c(OC)c3-2)CCN1C [Boldine]	only marcela extracts, quercetin or structurally similar flavonoids protected PC12 cells; also recorded: did not increased survival	12.8	did not revert in vivo the oxidative lesion; also recorded: did not show neuroprotection activity	antioxidant potency / capacity ([1]; result in words): highest antioxidant potency
O=C(O)/C=C/c1ccc(O)c(O)c1 [Caffeic acid]	–	48.6	–	–
Oc1cc(O)c2c(c1)OC(c1ccc(O)c(O)c1)C(O)C2 (stereo not drawn) [Catequin]	–	28.3	–	–
CC(=O)N[C@@H](CC(C)C)C(=O)N[C@@H](CCC(=O)O)C(=O)N[C@@H](Cc1c[nH]cn1)C(=O)N[C@H](C=O)CC(=O)O [LEHD, acetyl-L-leucyl-L-glutamyl-L-histidyl-L-aspart-1-al] (Ac-LEHD-aldehyde)	block H2O2-induced cell death	–	–	–
COc1ccc2[nH]cc(CCNC(C)=O)c2c1 [Melatonine]	did not increased survival	1400	weaker in its neuroprotection	–
CN1CCCC1c1cccnc1 (stereo not drawn) [Nicotine]	–	–	reverted dopamine levels in the ipsilateral striatum	antioxidant potency / capacity ([1]; result in words): negligible
O=c1c(O)c(-c2ccc(O)c(O)c2)oc2cc(O)cc(O)c12 [Quercetin]	protected PC12 cells; also recorded: protects PC12 cells against H2O2; also recorded: Neuroprotectan effect	3.7	did not show neuroprotection activity	malondialdehyde production during spontaneous lipoperoxidation ([1]; result in words): decreased malondialdehyde production; antioxidant potency / capacity ([1]; result in words): potent antioxidants; IC50 ([1]; spontaneous lipoperoxidation, marcela expressed in quercetin equivalents): 1.11 µg/mL; ischemic lesion area (male Sprague-Dawley rats; liposomal quercetin 30 mg/kg i.p. 30 min after ischemia, TTC at 24 hrs): clearly decreased the lesion area; also recorded: marked and significant decrease of the ischemic area; also recorded: recovery of the ischemic areas is clear cut; number of neurons in Nissl stained slices (male Sprague-Dawley rats; striatum and cortex, 24 hrs after occlusion): higher than ischemic rats and non different from controls; time quercetin is detected in blood [3]: up to two; neuroprotection: dopamine level in ipsilateral striatum ([2]; listed as quercetin): did not revert in vivo the oxidative lesion; also recorded: appear not to have neuroprotectant effects in vivo; adverse effects in acute toxicity experiments [4]: did not show any adverse effects
CC[C@H](C)[C@H](NC(=O)[C@H](CCC(=O)O)NC(=O)[C@@H](NC(C)=O)C(C)C)C(=O)N[C@H](C=O)CC(=O)O [VEID, acetyl-L-valyl-L-glutamyl-L-isoleucyl-L-aspart-1-al] (Ac-VEID-aldehyde)	block H2O2-induced cell death	–	–	–
O=c1c(O)c(-c2ccc(O)c(O)c2)oc2cc(O)ccc12 [fisetin]	did show neuroprotectant capacity	–	–	–
O=c1c(O)c(-c2cc(O)c(O)c(O)c2)oc2cc(O)cc(O)c12 [myricetin]	did show neuroprotectant capacity	–	–	–
Cc1c(C)c2c(c(C)c1O)CCC(C)(C(=O)O)O2 (stereo not drawn) [trolox]	only marcela extracts, quercetin or structurally similar flavonoids protected PC12 cells	–	–	–
Cc1c(C)c2c(c(C)c1O)CC[C@@](C)(CCC[C@H](C)CCC[C@H](C)CCCC(C)C)O2 [vitamin E, alpha-tocopherol]	only marcela extracts, quercetin or structurally similar flavonoids protected PC12 cells	–	–	protection / cell survival after H2O2 insult (PC12 cells; listed as alpha-tocopherol): did not increased survival
